How the values were obtained:
beagle dogs [1] = assay: Pathologic (histopathological) examination of organs, brain and cardiac conduction system; assay type: in vivo, dog
Experimental: (§1) The first day of treatment was regarded as day one in the study. […] Oral administration was performed about 2 h after feeding. ARM was administered by a bolus intramuscular infusion through a 25-gauge needle at a constant volume of 2 ml kg^−1 once a day into the gluteal and infraspinous muscles. Two dogs of each sex from each group were allowed to recover without further treatment for an additional 4 weeks.
(§2) Termination of treatment was scheduled to occur on weeks 4, 8 (two interim necropsies) and 13, followed by a 4-week recovery period. For pathological examinations, the animals were euthanized within 24 h of the final drug administration with sodium pentobarbital, followed by exsanguination via the femoral artery. A gross necropsy was performed, including a thorough visual examination of all the internal organs. Weights were obtained for the brain, heart, liver, spleen, lung, kidneys, adrenals, thyroid/parathyroids, thymus, pancreas and ovaries/testes/prostate, and organ-to-body weight ratios were calculated. For each animal, representative samples from approximately 48 organs and tissues were taken and fixed in neutral buffered 10% formalin, except for the sternum, which was retained in Helly’s fixative (1000 ml distilled water, 25 g potassium dichromate, 10 g sodium sulfate, 50 g mercuric chloride, 50 ml 40% formaldehyde). Histopathological sections of all samples were prepared by embedding in paraffin wax, multiple-sectioning and staining with hematoxylin and eosin (HE). Samples of the left ventricular myocardium, right lateral hepatic lobe and right kidney from two animals of each sex from each group were fixed immediately after exsanguination in 2.5% glutaraldehyde, post-fixed in 1.0% osmium tetroxide, and embedded in plastic. Ultrathin liver, kidney and heart sections were examined with a Hitachi H-600 transmission electron microscope (TEM). All other tissues were examined by light microscopy.
After removal, the cardiac conduction system, including the sinoatrial node (SAN) and atrioventricular node (AVN), were selected by the Palate method. The brain was sectioned at multiple transverse levels to obtain susceptible brain regions. To improve the definition of the brain lesions, toluidine stains were applied on selected duplicate sections, and all preparations were examined under a light microscope. For pathologic examinations, degenerative neurons were evaluated on three randomly selected brain sections. The adjacent fields of neurons in each selected section were counted using a microscope at a magnification of 200×. […] The severity of the neuropathological lesions was defined as follows: the total number of neuropathological lesions per section area yielded a severity score from 0 to 4, where 0 = unaffected, 1 = minimally affected neurons with one degenerative cell per section, 2 = two degenerative cells per section, 3 = three degenerative cells per section and 4 = multiple degenerative areas per section.

beagle dogs [2] = assay: Severity grading of muscle tissue injury at the intramuscular injection site; assay type: in vivo, dog; conditions: for Severity of muscle tissue injury at the injection site: n=4
Experimental: as §1, §2
Gross findings in the ART and ARM treatment groups were limited to the injection sites.

Mouse = tested on: Mouse; parameters: method as in Nontprasert et al., 2000 [42]; conditions: 300 mg kg^−1 per day, p.o. for 28 days, ref Nontprasert et al., 2000 [42]; cited from earlier work
beagle dogs [3] = assay: Ultra-structural examination of liver, kidney and heart by transmission electron microscopy; assay type: in vivo, dog; conditions: weeks 4, 8 and 13; TEM
Experimental: as §1
Termination of treatment was scheduled to occur on weeks 4, 8 (two interim necropsies) and 13, followed by a 4-week recovery period. For pathological examinations, the animals were euthanized within 24 h of the final drug administration with sodium pentobarbital, followed by exsanguination via the femoral artery. A gross necropsy was performed, including a thorough visual examination of all the internal organs. Weights were obtained for the brain, heart, liver, spleen, lung, kidneys, adrenals, thyroid/parathyroids, thymus, pancreas and ovaries/testes/prostate, and organ-to-body weight ratios were calculated. For each animal, representative samples from approximately 48 organs and tissues were taken and fixed in neutral buffered 10% formalin, except for the sternum, which was retained in Helly’s fixative (1000 ml distilled water, 25 g potassium dichromate, 10 g sodium sulfate, 50 g mercuric chloride, 50 ml 40% formaldehyde). […]

[4] = Week 4, 6 mg kg^-1 per day (ART p.o., ARM i.m.)
[5] = Week 8, 6 mg kg^-1 per day (ART p.o., ARM i.m.)
[6] = Week 13, 6 mg kg^-1 per day (ART p.o., ARM i.m.)
[7] = Week 17 (after 4-week recovery)
[8] = both treated groups, no significant differences

Compound: CO[C@H]1O[C@@H]2O[C@@]3(C)CC[C@H]4[C@H](C)CC[C@@H]([C@H]1C)[C@@]24OO3 [ARM, artemether]
- Cardiac conduction system foci (dogs affected/examined) (beagle dogs [1]; [4]): 0
- Extramedullary hematopoiesis (dogs affected/examined) (beagle dogs [1]; [4]): 2/4
- Hepatocyte necrosis (dogs affected/examined) (beagle dogs [1]; [4]): 3/4
- Inhibition of erythropoiesis (dogs affected/examined) (beagle dogs [1]; [4]): 4/4
- Neuronal necrosis (dogs affected/examined) (beagle dogs [1]; [4]): 0
- Tubular cell degeneration (dogs affected/examined) (beagle dogs [1]; [4]): 4/4
- Cardiac conduction system foci (dogs affected/examined) (beagle dogs [1]; [5]): 0
- Extramedullary hematopoiesis (dogs affected/examined) (beagle dogs [1]; [5]): 3/4
- Hepatocyte necrosis (dogs affected/examined) (beagle dogs [1]; [5]): 2/4
- Inhibition of erythropoiesis (dogs affected/examined) (beagle dogs [1]; [5]): 2/4
- Neuronal necrosis (dogs affected/examined) (beagle dogs [1]; [5]): 2/4
- Tubular cell degeneration (dogs affected/examined) (beagle dogs [1]; [5]): 3/4
- Cardiac conduction system foci (dogs affected/examined) (beagle dogs [1]; [6]): 0
- Extramedullary hematopoiesis (dogs affected/examined) (beagle dogs [1]; [6]): 1/4
- Hepatocyte necrosis (dogs affected/examined) (beagle dogs [1]; [6]): 0
- Inhibition of erythropoiesis (dogs affected/examined) (beagle dogs [1]; [6]): 2/4
- Neuronal necrosis (dogs affected/examined) (beagle dogs [1]; [6]): 4/4
- Tubular cell degeneration (dogs affected/examined) (beagle dogs [1]; [6]): 2/4
- Cardiac conduction system foci (dogs affected/examined) (beagle dogs [1]; [7]): 0
- Extramedullary hematopoiesis (dogs affected/examined) (beagle dogs [1]; [7]): 0
- Hepatocyte necrosis (dogs affected/examined) (beagle dogs [1]; [7]): 0
- Inhibition of erythropoiesis (dogs affected/examined) (beagle dogs [1]; [7]): 0
- Neuronal necrosis (dogs affected/examined) (beagle dogs [1]; [7]): 1/4
- Tubular cell degeneration (dogs affected/examined) (beagle dogs [1]; [7]): 1/4
- dogs with neuropathological abnormalities (beagle dogs [1]; after the 4-week recovery period, mild damage): one of the four dogs
- histological examination of sternal bone marrow (beagle dogs [1]; [8]): mild inhibition of erythropoiesis and a decreased count of mature erythrocytes
- spleen histology (beagle dogs [1]; [8]): extramedullary hematopoiesis was observed in the spleen
- mean severity score of the lesions in the brain (beagle dogs [1]; score 0 (unaffected) to 4 (multiple degenerative areas per section)): 2.14
- light microscopy of liver sections (beagle dogs [1]; some dogs, characterized as very mild): degenerative hepatocellular changes
- histopathological changes in the kidneys (beagle dogs [1]; vs control groups): tubular epithelium vacuolation and necrosis
- dogs with neuropathological abnormalities (beagle dogs [1]; week 8, two of the four dogs examined): 50%
- dogs with neuropathological abnormalities (beagle dogs [1]; week 13, four of the four dogs examined): 100%
- Severity of muscle tissue injury at the injection site (beagle dogs [2]; W4, 6 mg kg^−1 i.m., grades 0 (no significant lesions) to 5 (severe)): 2.25±0.87
- Severity of muscle tissue injury at the injection site (beagle dogs [2]; W8, 6 mg kg^−1 i.m., grades 0 to 5): 2.67±0.78
- Severity of muscle tissue injury at the injection site (beagle dogs [2]; W13, 6 mg kg^−1 i.m., grades 0 to 5): 3.92±1.08
- Severity of muscle tissue injury at the injection site (beagle dogs [2]; W17 (after 4-week recovery), grades 0 to 5): 3.84±0.72
- inflammation of muscle tissue at the injection site (beagle dogs [2]; i.m. injection, vs vehicle control group): more severely inflamed than that in the vehicle control group
- Effect (toxicology) (Mouse): Balance/gait disturbances and mortality
- ultra-structural findings in hepatocytes, myocardial cells and proximal tubules in the kidney (beagle dogs [3]): Mitochondrial bending and distortion and swollen vacuoles

Reference: publication PMC3989207, “Subchronic Toxicological Study of Two Artemisinin Derivatives in Dogs” (PLoS ONE, 2014)
